Experimental data as given in PubChem BioAssay AID977606 (Broad Institute, 2014).
Activity calls are given as the source filed them. The rule behind the calls is not given here.

Tested on: INS-1E Gaussia luciferase insulin secretion, no glucose, luminescence
Test: insulin secretion activators without glucose, dose response, counter-screen for glucose-dependent insulin secretion activators, cell-based, INS-1E, Gaussia luciferase, luminescence, cherry-pick (AID 977606)

Row | Compound | AC40
1 | COC(=O)C1=C(C)N(Cc2cccc(C(F)(F)F)c2)C(=NCc2ccccc2)NC1c1ccc(Cl)cc1 (stereo not drawn) | 10.4 µM
2 | COc1ccc(NC(=O)Cn2cnc3c(cnn3-c3ccc(C)c(C)c3)c2=O)c(OC)c1 | 3.41 µM
3 | Cc1ccc2sc(-c3ccc(NC(=O)c4cc(-n5cnnc5)ccc4Cl)cc3)nc2c1 | 8.4 µM
4 | Cc1ccc(CC2(OCCN(C)C)CCC(C(C)(C)C)CC2)cc1 (stereo not drawn) | 5.45 µM
5 | COc1ccc(NC(=O)COc2ccc(C(=O)NC3CCCc4ccccc43)cc2OC)cc1 (stereo not drawn) | 5.92 µM
6 | CC(C)NC(=O)OC[C@H]1O[C@H](C#Cc2ccc(C(C)(C)C)cc2)C=C[C@H]1O | 20.3 µM
7 | Cc1c(C)c2c(OCC(=O)O)cc3c(c2oc1=O)CCC(C)(C)O3 | 22 µM
8 | Fc1cccc(CN2C[C@@H]3N[C@H](C2)C3c2ccc(/C=C/c3ccccc3)cc2)c1 (stereo partly drawn) | 6.41 µM
9 | Cc1cc(C)c2nc(N(CCCN(C)C)C(=O)c3ccc4c(c3)CCCC4)sc2c1 | 7.77 µM
10 | COc1ccccc1CCn1cnc(-c2ccccc2OC)c1CC(C)C | 11.4 µM
11 | OC[C@@H]1[C@@H](c2ccc(C#CC3CCCC3)cc2)[C@@H]2CN(CCC(F)(F)F)CCCCN12 | 8.18 µM
12 | COc1ccc(NC(=O)Cc2c(SC)c3ccccc3n2Cc2ccccc2)cc1 | 12.5 µM
13 | Clc1ccc(-c2ccnc(Oc3ccc4ccccc4c3)n2)cc1 | 7.79 µM
14 | COCCN(CCOC)Cc1cc(=O)oc2cc(OC)c(Cl)cc12 | > 35 µM (inactive)
15 | COCCOc1ccc(C(F)(F)F)cc1NC(=O)c1ccccc1F | 7.89 µM
16 | CCOC(=O)CN1C(=O)[C@]2(OCCC=C[C@H]2C)c2ccccc21 | 13 µM
17 | Cc1nc2c(=O)n(C)c(=O)n(C)c2nc1Cl | 23.6 µM
18 | Cc1ccc(NC(=O)c2ccc(COc3ccc4c(c3)CCC4)cc2)c(C)c1 | 0.841 µM
19 | CCOC(=O)c1oc2ccccc2c1NC(=O)c1cccs1 | 12.6 µM
20 | C=CCOc1ccc(-c2nc3c(c(=O)[nH]c(=O)n3CCCC)n2C)cc1Br | 10.1 µM
21 | CN(C)Cc1ccccc1Sc1ccc2c(c1)CCCC2 | 13 µM
22 | Cc1cc2c(cc1C)CSC(c1c(O)ccc3ccccc13)SC2 | 17.9 µM
23 | CN(C)CCCNc1cc(C(C)(C)C)nc2c(-c3ccc(Cl)cc3)cnn12 | 3.6 µM
24 | Cc1cc(Cl)ccc1Oc1nc(-c2ccccc2)ncc1S(C)(=O)=O | 3.04 µM
25 | FC(F)(F)c1cc(CCN2CCNC[C@@H]2CC2CCCCC2)cc(C(F)(F)F)c1 | 4.05 µM
26 | CCNC(=O)NC(=O)C(C)OC(=O)c1oc2ccccc2c1CSC1CCCCC1 (stereo not drawn) | 2.22 µM
27 | CCCCc1c(Cc2cccc(F)c2)ncn1CCc1ccccc1OC | 4.98 µM

Row | Compound | AC40
28 | COc1cc(CN2CCc3ccccc3C2)ccc1O | 13.6 µM
29 | COc1ccc(S(=O)(=O)N2CCc3ccccc3C2)cc1OC | > 35 µM (inactive)
30 | CC1(Cc2ccc(C(F)(F)F)o2)C(=O)Nc2ccc(-c3cccc(C(F)(F)F)c3)cc21 (stereo not drawn) | 5.92 µM
31 | CC1(Cc2cc(Cl)ccc2C(F)(F)F)C(=O)Nc2cc(C(F)(F)F)ccc21 (stereo not drawn) | 12.4 µM
32 | COc1ccc(/C=N/Nc2nc(-c3ccc(Cl)cc3)cc(C(F)(F)F)n2)c(OC)c1 | 12.2 µM
33 | NS(=O)(=O)c1ccc(NC(=S)N2CCN(c3ccc(Cl)c(Cl)c3)CC2)cc1 | 3.74 µM
34 | OC(c1ccccc1)(c1ccccc1)C1CCN(CCCOc2ccc3c(c2)CCCC3)CC1 | 3.37 µM
35 | O=c1c(C=Nc2ccc(Oc3ccccc3)cc2)c[nH]n1-c1cccc(Cl)n1 | 4.28 µM
36 | CCN(Cc1ccccc1)S(=O)(=O)c1ccc(C(=O)Nc2nnc(C)o2)cc1 | 0.0558 µM
37 | O=C1Nc2ccccc2N(C(=O)c2ccc3ccccc3c2)C1c1nc2ccccc2[nH]1 (stereo not drawn) | 6.41 µM
38 | O=C(Nc1ccc2ccccc2c1)c1cccc2ccccc12 | 3.25 µM
39 | Cc1ccc(SC[C@H](C)CN2CC[C@H](C(C)(C)C)CCC2=O)cc1 | 4.93 µM
40 | COc1ccc2c(c1)C(=NNC(=O)c1ccccn1)c1cc(OC)ccc1-2 | 2.66 µM
41 | Fc1ccccc1-c1ccc(C2[C@@H]3CN(Cc4ccccc4)C[C@H]2N3)cc1 (stereo partly drawn) | 7.19 µM
42 | N#Cc1c(-c2cccc(Br)c2)cc(-c2cccnc2)nc1N | 8.34 µM
43 | Cc1cccc(S(=O)(=O)N2C[C@@H]3N[C@H](C2)C3c2ccc(-c3ccccc3F)cc2)c1 (stereo partly drawn) | 2.91 µM
44 | CCCCCCc1cc2cc(C(=O)Nc3cccc(OC)c3)c(=O)oc2cc1O | 13.4 µM
45 | CC1(C(=O)NCC2CCCCC2)CCN1CCc1ccccc1 (stereo not drawn) | 17.9 µM
46 | O=C(Nc1cccc(Cl)c1)Nc1nnc(CSCCOc2ccc(Cl)cc2)s1 | 3.41 µM
47 | Cc1ccc(C)c(OCC(=O)N/N=C/c2c(C)nn(-c3ccccc3)c2Cl)c1C | 1.63 µM
48 | OC(CNCCc1ccc(C(F)(F)F)cc1)COC(c1ccccc1)c1ccccc1 (stereo not drawn) | 4.72 µM
49 | O=c1[nH]c(/C=C/c2ccc(OC(F)F)cc2)nc2c1cnn2-c1ccccc1 | 25.6 µM
50 | CS(=O)(=O)N(Cc1ccc(Cl)cc1)c1ccc(C(=O)NCCC2=CCCCC2)cc1 | 6.78 µM
51 | C[C@H]1CN([C@@H](C)CO)S(=O)(=O)c2ccc(C#Cc3ccccc3)cc2O[C@@H]1CN(C)C(=O)CN(C)C | 11.1 µM
52 | COc1ccc(C(C)NCCC(c2ccc(OC(C)C)cc2)c2ccccc2OC)cc1 (stereo not drawn) | 4.99 µM
53 | CCOC(=O)c1c(NC(=O)Cn2nc(C(F)(F)F)cc2C)sc(C)c1C | 5.96 µM
